This passage reports inhibition and fold change (FC) results from ChEMBL document CHEMBL5653631, “A Potent and Selective ULK1 Inhibitor Suppresses Autophagy and Sensitizes Cancer Cells to Nutrient Stress” (iScience, 2018).

Test [1] concerns the target Receptor tyrosine-protein kinase erbB-4 (Homo sapiens) (UniProt Q15303). Nature of the test: Inhibition of human recombinant ErbB4 at 40 nM in presence of ATP by radiometric assay relative to control.
For test [2], the target named is T1, Serine/threonine-protein kinase Sgk3 (Homo sapiens) (UniProt Q96BR1).
T1 sequence (whole entry): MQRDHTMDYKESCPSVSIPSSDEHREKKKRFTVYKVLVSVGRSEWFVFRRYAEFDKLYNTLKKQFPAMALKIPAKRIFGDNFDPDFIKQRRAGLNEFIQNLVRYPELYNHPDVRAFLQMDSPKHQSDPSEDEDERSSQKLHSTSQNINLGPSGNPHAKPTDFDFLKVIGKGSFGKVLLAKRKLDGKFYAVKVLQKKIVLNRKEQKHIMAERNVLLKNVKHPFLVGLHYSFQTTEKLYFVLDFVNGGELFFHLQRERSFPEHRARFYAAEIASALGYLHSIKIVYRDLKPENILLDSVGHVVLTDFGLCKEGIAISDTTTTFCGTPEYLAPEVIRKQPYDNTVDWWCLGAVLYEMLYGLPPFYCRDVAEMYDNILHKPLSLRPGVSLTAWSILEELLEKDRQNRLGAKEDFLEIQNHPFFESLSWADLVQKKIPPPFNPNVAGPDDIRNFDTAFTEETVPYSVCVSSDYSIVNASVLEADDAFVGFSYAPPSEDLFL
Nature of the test: Inhibition of human recombinant SGK3 at 40 nM in presence of ATP by radiometric assay relative to control.

Test [3] has as its target Ribosomal protein S6 kinase alpha-1 (Homo sapiens) (UniProt Q15418). Kind of test: Inhibition of human recombinant RSK1 at 40 nM related to control ULK1.
Test [4] has as its target T2, Serine/threonine-protein kinase TAO2 (Homo sapiens) (UniProt Q9UL54).
T2 sequence (whole entry): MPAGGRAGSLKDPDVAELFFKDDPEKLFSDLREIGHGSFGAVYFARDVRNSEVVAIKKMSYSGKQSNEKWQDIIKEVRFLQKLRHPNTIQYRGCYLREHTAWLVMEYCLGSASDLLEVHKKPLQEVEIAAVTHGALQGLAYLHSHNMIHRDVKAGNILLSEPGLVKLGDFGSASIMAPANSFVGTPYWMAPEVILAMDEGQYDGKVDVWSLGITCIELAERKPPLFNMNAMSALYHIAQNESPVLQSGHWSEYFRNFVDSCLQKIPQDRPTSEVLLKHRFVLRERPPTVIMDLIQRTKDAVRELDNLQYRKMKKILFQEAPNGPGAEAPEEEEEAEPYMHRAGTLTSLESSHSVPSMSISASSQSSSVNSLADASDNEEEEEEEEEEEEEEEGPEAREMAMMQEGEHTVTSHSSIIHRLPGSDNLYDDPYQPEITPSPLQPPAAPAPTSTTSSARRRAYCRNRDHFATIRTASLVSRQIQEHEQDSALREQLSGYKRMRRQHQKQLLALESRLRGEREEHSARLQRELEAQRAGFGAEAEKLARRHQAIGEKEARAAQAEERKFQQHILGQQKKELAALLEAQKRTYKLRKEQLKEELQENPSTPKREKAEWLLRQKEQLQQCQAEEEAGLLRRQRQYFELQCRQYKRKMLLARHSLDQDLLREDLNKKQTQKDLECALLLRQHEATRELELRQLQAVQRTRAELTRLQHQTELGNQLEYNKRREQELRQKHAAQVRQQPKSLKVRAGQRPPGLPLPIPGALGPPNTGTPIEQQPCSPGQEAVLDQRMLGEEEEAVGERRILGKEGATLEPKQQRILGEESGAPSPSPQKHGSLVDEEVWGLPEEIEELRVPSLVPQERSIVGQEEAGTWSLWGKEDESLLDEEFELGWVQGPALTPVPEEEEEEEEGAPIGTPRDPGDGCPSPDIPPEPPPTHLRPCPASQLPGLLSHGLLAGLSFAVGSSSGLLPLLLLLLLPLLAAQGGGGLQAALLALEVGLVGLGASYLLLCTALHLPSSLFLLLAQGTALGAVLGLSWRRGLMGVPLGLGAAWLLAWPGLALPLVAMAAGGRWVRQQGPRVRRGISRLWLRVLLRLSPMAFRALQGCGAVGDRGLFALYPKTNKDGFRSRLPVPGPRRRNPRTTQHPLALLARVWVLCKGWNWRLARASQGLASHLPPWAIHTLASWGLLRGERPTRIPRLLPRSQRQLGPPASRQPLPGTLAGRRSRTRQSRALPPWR
Kind of test: Inhibition of human recombinant TAO2 at 40 nM related to control ULK1.

The target in test [5] is Serine/threonine-protein kinase MARK2 (Homo sapiens) (UniProt Q7KZI7). Kind of test: Inhibition of human recombinant MARK2 at 40 nM in presence of ATP by radiometric assay relative to control.
Chain of Serine/threonine-protein kinase MARK2 (Homo sapiens) (Q7KZI7 whole entry): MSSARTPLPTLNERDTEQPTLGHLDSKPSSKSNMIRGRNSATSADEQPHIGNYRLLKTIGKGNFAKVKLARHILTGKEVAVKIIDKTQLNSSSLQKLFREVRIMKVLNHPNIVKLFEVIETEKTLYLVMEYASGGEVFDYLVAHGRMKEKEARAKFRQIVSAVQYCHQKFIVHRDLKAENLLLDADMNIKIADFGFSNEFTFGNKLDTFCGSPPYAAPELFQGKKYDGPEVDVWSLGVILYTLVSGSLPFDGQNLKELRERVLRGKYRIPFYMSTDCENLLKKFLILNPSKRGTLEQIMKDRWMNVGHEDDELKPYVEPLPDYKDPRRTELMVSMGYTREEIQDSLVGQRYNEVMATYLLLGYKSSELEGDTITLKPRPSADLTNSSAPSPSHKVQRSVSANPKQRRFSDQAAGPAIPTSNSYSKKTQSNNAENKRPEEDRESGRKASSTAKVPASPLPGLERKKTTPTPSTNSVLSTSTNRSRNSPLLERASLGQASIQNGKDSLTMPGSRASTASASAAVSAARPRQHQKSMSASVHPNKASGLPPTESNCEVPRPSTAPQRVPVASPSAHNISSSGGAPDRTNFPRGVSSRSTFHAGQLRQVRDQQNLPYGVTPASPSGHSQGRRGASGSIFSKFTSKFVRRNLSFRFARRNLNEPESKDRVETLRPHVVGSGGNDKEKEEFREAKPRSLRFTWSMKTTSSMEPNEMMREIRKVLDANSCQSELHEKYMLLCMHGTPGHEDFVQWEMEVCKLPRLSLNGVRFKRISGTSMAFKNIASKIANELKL
Test [6] concerns the target Maternal embryonic leucine zipper kinase (Homo sapiens) (UniProt Q14680). Nature of the test: Inhibition of human recombinant MELK at 500 nM in presence of ATP by radiometric assay relative to control.
Test [7] concerns the target Receptor-interacting serine/threonine-protein kinase 2 (Homo sapiens) (UniProt O43353). Nature of the test: Inhibition of human recombinant RIPK2 at 500 nM in presence of ATP by radiometric assay relative to control.
The target of test [8] is T3, Inhibitor of nuclear factor kappa-B kinase subunit epsilon (Homo sapiens) (UniProt Q14164).
T3 sequence (whole entry): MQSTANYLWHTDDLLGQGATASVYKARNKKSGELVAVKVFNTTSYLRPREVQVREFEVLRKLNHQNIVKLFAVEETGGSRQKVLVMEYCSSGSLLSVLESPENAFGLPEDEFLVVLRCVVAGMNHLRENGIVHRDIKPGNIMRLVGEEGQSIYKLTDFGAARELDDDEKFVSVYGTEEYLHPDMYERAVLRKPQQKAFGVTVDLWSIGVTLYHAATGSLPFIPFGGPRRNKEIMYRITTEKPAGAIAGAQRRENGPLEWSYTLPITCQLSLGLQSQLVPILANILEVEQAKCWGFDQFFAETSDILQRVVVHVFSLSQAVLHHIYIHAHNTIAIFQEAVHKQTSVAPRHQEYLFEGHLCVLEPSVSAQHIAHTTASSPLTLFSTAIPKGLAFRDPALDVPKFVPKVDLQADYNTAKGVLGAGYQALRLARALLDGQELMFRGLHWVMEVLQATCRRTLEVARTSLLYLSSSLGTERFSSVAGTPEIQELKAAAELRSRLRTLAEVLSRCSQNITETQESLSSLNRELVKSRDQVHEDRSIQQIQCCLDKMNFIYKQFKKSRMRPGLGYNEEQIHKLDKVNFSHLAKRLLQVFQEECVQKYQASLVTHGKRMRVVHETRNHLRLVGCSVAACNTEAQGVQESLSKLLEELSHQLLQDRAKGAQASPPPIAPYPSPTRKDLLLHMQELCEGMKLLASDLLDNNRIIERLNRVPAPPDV
Nature of the test: Inhibition of human recombinant IKKe at 500 nM related to control ULK1.

Chain of Receptor tyrosine-protein kinase erbB-4 (Homo sapiens) (Q15303 whole entry): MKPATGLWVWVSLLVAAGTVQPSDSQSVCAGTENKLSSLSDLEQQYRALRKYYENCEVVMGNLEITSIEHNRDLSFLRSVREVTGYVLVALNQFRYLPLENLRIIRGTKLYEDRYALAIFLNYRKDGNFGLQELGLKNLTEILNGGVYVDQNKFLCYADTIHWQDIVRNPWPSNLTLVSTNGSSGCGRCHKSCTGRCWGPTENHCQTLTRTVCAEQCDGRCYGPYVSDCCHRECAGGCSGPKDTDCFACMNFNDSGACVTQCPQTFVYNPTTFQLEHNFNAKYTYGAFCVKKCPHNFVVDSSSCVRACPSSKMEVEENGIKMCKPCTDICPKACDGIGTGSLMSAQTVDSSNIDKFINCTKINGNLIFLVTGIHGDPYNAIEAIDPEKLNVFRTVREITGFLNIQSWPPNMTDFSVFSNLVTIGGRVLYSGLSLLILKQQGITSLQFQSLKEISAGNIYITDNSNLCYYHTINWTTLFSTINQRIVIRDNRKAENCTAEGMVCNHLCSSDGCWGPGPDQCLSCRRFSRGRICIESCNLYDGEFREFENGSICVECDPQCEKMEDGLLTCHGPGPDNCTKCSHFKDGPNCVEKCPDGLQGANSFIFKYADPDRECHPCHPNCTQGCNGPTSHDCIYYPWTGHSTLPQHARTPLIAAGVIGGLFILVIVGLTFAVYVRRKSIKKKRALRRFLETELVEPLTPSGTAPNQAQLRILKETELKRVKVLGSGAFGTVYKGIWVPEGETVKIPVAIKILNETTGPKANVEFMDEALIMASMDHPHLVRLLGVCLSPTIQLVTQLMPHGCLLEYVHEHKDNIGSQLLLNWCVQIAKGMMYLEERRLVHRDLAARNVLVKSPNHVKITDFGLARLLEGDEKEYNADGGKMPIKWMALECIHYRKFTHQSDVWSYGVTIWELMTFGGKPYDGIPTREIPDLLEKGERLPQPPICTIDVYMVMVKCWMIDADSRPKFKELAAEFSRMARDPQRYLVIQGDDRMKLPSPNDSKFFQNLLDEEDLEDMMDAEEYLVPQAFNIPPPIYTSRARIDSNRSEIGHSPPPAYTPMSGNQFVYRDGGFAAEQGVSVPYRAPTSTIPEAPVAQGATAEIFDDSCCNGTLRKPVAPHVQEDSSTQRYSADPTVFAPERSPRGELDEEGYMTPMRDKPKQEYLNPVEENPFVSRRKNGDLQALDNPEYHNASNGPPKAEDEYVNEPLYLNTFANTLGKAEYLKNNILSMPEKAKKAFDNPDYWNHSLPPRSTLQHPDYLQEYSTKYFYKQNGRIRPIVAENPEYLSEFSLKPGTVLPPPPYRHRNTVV
Chain of Receptor-interacting serine/threonine-protein kinase 2 (Homo sapiens) (O43353 whole entry): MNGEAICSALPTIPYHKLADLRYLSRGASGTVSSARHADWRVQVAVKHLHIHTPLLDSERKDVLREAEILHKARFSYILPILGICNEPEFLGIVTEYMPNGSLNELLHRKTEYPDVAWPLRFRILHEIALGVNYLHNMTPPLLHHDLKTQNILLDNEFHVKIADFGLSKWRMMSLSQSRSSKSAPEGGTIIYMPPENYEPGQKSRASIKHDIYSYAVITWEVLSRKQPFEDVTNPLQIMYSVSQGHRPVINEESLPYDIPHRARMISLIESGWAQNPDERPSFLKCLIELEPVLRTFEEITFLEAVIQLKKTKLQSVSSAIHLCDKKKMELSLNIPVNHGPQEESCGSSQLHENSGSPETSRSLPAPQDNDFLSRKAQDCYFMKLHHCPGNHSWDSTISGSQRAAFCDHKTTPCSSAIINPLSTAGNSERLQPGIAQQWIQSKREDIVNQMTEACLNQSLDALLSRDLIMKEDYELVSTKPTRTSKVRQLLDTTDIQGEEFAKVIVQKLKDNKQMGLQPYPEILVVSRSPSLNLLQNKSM
Chain of Maternal embryonic leucine zipper kinase (Homo sapiens) (Q14680 whole entry, looked up): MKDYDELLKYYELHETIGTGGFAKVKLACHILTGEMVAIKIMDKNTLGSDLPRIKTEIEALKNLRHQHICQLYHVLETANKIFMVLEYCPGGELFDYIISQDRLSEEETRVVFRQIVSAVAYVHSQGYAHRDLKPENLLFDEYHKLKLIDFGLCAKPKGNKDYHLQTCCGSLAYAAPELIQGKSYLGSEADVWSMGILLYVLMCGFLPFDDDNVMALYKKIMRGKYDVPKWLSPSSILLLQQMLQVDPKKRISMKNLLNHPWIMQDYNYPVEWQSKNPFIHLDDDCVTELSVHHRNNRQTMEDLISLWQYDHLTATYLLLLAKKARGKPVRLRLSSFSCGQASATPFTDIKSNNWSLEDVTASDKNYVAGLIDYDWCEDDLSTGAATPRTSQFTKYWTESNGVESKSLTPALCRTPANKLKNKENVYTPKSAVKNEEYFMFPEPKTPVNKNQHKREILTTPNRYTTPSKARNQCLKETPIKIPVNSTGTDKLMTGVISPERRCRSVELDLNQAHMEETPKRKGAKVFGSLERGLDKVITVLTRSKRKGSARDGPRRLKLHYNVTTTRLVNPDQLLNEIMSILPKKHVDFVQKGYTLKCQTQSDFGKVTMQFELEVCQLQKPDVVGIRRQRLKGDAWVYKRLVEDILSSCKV
Chain of Ribosomal protein S6 kinase alpha-1 (Homo sapiens) (Q15418 whole entry): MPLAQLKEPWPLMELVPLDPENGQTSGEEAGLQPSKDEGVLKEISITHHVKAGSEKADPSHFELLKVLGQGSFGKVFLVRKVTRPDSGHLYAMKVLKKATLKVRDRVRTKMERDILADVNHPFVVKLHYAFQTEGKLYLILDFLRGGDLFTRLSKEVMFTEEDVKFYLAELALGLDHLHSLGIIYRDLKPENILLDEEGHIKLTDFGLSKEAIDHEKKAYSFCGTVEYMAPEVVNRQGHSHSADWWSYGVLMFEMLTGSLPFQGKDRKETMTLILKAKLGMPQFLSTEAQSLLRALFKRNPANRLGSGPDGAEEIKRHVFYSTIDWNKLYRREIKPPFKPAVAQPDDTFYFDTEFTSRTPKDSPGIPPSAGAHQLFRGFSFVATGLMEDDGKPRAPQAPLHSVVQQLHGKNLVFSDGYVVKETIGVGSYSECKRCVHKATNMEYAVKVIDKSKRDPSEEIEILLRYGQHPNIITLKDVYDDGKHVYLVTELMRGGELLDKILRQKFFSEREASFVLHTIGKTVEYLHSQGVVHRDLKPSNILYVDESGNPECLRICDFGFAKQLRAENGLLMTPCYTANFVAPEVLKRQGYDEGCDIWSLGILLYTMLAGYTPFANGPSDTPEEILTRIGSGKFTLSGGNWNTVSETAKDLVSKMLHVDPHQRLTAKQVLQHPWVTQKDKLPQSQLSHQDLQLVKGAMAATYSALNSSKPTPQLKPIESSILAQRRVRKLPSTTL

As usually defined, the inhibition is the drop in the measured response relative to a control, in per cent. In the case of `O=C(N[C@@H](C1CC1)C(F)(F)F)c1cc(-c2cnn3cc(-c4ccc(F)cc4)cnc23)cs1`, the inhibition turned out to be 0% in test [1], 0% in test [2] and 12% in test [5]. Moreover, the fold change (FC) in test [3] came out at 0.11; in test [4] it was 0.04.
Regarding `CNC(=O)c1ccccc1Oc1nc(Nc2cc(OC)c(OC)c(OC)c2)ncc1Br`, the inhibition in test [6] and in test [7] was 0% each time. The fold change (FC) in test [8] amounted to 0.
